Source: ChEMBL document CHEMBL1201862, “PubChem BioAssay data set” (2004)
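Results reflect a 48-hour exposure of cells in 96-well plates to compound at five concentrations. The concentration for 50% growth inhibition is given as GI50.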 Active and inactive are the calls of the source. Cut-off read from the data, not from the text of the source: active = GI50 up to about 1.1 µM and inactive = higher. Where a SMILES comes first, the peptide text is derived from it. The star is where a group is joined. Cbz = O=C(OCc1ccccc1)*; Bn = c1ccc(C*)cc1

Key:
Experiment in all cases: NCI-60 cell line screen, 48 h
UACC-257 = tested on: UACC-257
SF-539 = tested on: SF-539
MOLT-4 = tested on: MOLT-4
MCF7 = tested on: MCF7
HOP-92 = tested on: HOP-92
HOP-62 = tested on: HOP-62
PC-3 = tested on: PC-3
SF-295 = tested on: SF-295
NCI-H23 = tested on: NCI-H23
U-251 = tested on: U-251
SK-MEL-2 = tested on: SK-MEL-2
HL-60 = tested on: HL-60
OVCAR-3 = tested on: OVCAR-3
UACC-62 = tested on: UACC-62
OVCAR-5 = tested on: OVCAR-5
RPMI-8226 = tested on: RPMI-8226
OVCAR-8 = tested on: OVCAR-8
MDA-MB-435 = tested on: MDA-MB-435
LOX IMVI = tested on: LOX IMVI
KM12 = tested on: KM12

Measured: GI50

CC1(c2nc3ccccc3[nH]2)CCC(CO)C(C)(C)O1 (centres undefined)
inactive: UACC-257 > 100 µM | SF-539 > 100 µM | MOLT-4 > 100 µM | MCF7 > 100 µM | HOP-92 > 100 µM | HOP-62 > 100 µM | PC-3 > 100 µM | SF-295 > 100 µM | NCI-H23 > 100 µM | U-251 > 100 µM | SK-MEL-2 > 100 µM | HL-60 > 100 µM | OVCAR-3 > 100 µM | UACC-62 > 100 µM | OVCAR-5 > 100 µM | RPMI-8226 > 100 µM | OVCAR-8 > 100 µM | MDA-MB-435 > 100 µM | LOX IMVI > 100 µM | KM12 > 100 µM

CN1CCc2c(sc3nc(S)nc(S)c23)C1
inactive: UACC-257 > 100 µM | SF-539 > 100 µM | MOLT-4 > 100 µM | MCF7 > 100 µM | HOP-92 > 100 µM | HOP-62 > 100 µM | PC-3 > 100 µM | SF-295 > 100 µM | NCI-H23 > 100 µM | U-251 72.4 µM | SK-MEL-2 > 100 µM | HL-60 > 100 µM | OVCAR-3 > 100 µM | UACC-62 > 100 µM | OVCAR-5 > 100 µM | RPMI-8226 > 100 µM | OVCAR-8 > 100 µM | MDA-MB-435 > 100 µM | LOX IMVI > 100 µM | KM12 > 100 µM

CC(C)(C)c1cc(C(=O)/C=C/c2ccc(C(=O)O)cc2)cc(C(C)(C)C)c1
inactive: UACC-257 10.1 µM | SF-539 1.36 µM | MOLT-4 2.37 µM | MCF7 3.87 µM | HOP-92 6.68 µM | HOP-62 2.32 µM | PC-3 4.48 µM | SF-295 2.58 µM | U-251 3.13 µM | SK-MEL-2 2.94 µM | HL-60 3.51 µM | OVCAR-3 2.35 µM | UACC-62 1.77 µM | OVCAR-5 4.9 µM | RPMI-8226 1.16 µM | OVCAR-8 2.44 µM | MDA-MB-435 2.16 µM | LOX IMVI 3.2 µM | KM12 2.4 µM

COc1cc(OC)c2nc(C)c3c(c2c1)OCC3
inactive: UACC-257 > 100 µM | SF-539 86.7 µM | MOLT-4 > 100 µM | MCF7 > 100 µM | HOP-92 40.6 µM | HOP-62 37.7 µM | PC-3 > 100 µM | SF-295 34 µM | NCI-H23 > 100 µM | U-251 35 µM | SK-MEL-2 > 100 µM | HL-60 > 100 µM | OVCAR-3 > 100 µM | UACC-62 44.8 µM | OVCAR-5 > 100 µM | RPMI-8226 > 100 µM | OVCAR-8 > 100 µM | MDA-MB-435 > 100 µM | LOX IMVI > 100 µM | KM12 > 100 µM

CC1(C)C[C@H]2C=C(C=O)[C@]34C[C@]3(C(=O)OC4O)[C@H]2C1 (some centres undefined)
inactive: UACC-257 2.11 µM | SF-539 1.68 µM | MOLT-4 1.53 µM | MCF7 1.38 µM | HOP-92 2.17 µM | HOP-62 14.2 µM | PC-3 2.84 µM | SF-295 1.55 µM | NCI-H23 1.66 µM | U-251 8.77 µM | SK-MEL-2 1.72 µM | HL-60 1.92 µM | OVCAR-3 2.84 µM | UACC-62 1.97 µM | OVCAR-5 2.37 µM | RPMI-8226 4.54 µM | MDA-MB-435 2.35 µM | LOX IMVI 1.24 µM | KM12 1.94 µM
active: OVCAR-8 1.1 µM

COCCOc1nc(-c2ccccc2)nc2ccccc12
inactive: UACC-257 > 100 µM | SF-539 48.8 µM | MOLT-4 20.6 µM | MCF7 37.2 µM | HOP-92 27.6 µM | HOP-62 22.1 µM | PC-3 34.5 µM | SF-295 43.1 µM | NCI-H23 61.8 µM | U-251 45.8 µM | SK-MEL-2 51.8 µM | HL-60 29.2 µM | OVCAR-3 95.1 µM | UACC-62 20.7 µM | OVCAR-5 > 100 µM | RPMI-8226 15.7 µM | OVCAR-8 42 µM | MDA-MB-435 52.4 µM | LOX IMVI 47.8 µM | KM12 30 µM

O=P(O)(O)CN1CCN(CP(=O)(O)O)CCN(CP(=O)(O)O)CCN(CP(=O)(O)O)CC1
inactive: UACC-257 > 100 µM | SF-539 70.5 µM | MOLT-4 41.3 µM | MCF7 53.6 µM | HOP-92 38.3 µM | HOP-62 > 100 µM | PC-3 87.3 µM | SF-295 > 100 µM | NCI-H23 55.6 µM | U-251 45.6 µM | SK-MEL-2 32.8 µM | HL-60 25.4 µM | OVCAR-3 > 100 µM | UACC-62 46 µM | OVCAR-5 73.8 µM | RPMI-8226 21.2 µM | OVCAR-8 77.6 µM | MDA-MB-435 > 100 µM | LOX IMVI > 100 µM | KM12 41.8 µM

O=CC1C(Cl)=Nc2nc3ccccc3n2C1c1ccc([N+](=O)[O-])cc1 (centres undefined)
inactive: UACC-257 13.6 µM | SF-539 20.2 µM | MOLT-4 1.71 µM | MCF7 3.97 µM | HOP-92 5.45 µM | HOP-62 8.28 µM | PC-3 4.89 µM | SF-295 23.2 µM | NCI-H23 7.96 µM | U-251 5.52 µM | SK-MEL-2 6.03 µM | HL-60 3.28 µM | OVCAR-3 3.85 µM | UACC-62 16.3 µM | OVCAR-5 21.1 µM | RPMI-8226 3.77 µM | OVCAR-8 3.95 µM | MDA-MB-435 4.81 µM | LOX IMVI 2.18 µM | KM12 24.8 µM

COC(=O)C(Cc1ccc(O)cc1)NC(=O)C(COCc1ccccc1)NC(=O)OCc1ccccc1 (centres undefined) (Cbz-Ser(Bn)-Tyr-OMe; configuration not given here)
inactive: UACC-257 19.3 µM | SF-539 18.8 µM | MOLT-4 > 100 µM | MCF7 19.3 µM | HOP-92 25.5 µM | HOP-62 19 µM | PC-3 19.1 µM | SF-295 16.5 µM | NCI-H23 20.1 µM | U-251 18.7 µM | SK-MEL-2 23 µM | HL-60 > 100 µM | OVCAR-3 17.7 µM | UACC-62 17 µM | OVCAR-5 19.8 µM | RPMI-8226 74.6 µM | OVCAR-8 17.8 µM | MDA-MB-435 19.1 µM | LOX IMVI 22.2 µM | KM12 19.8 µM

Nc1c2c(=O)[nH]c(=O)c2c(N)c2c(=O)c3ccccc3c(=O)c12
inactive: UACC-257 1.69 µM | SF-539 2.04 µM | MOLT-4 3.68 µM | MCF7 1.16 µM | HOP-92 12.9 µM | HOP-62 3.13 µM | PC-3 2.49 µM | SF-295 1.59 µM | U-251 3.61 µM | SK-MEL-2 2.07 µM | HL-60 2 µM | UACC-62 1.61 µM | OVCAR-5 1.82 µM | RPMI-8226 2.05 µM | OVCAR-8 1.82 µM | LOX IMVI 1.23 µM | KM12 1.83 µM
active: NCI-H23 0.76 µM | OVCAR-3 0.684 µM | MDA-MB-435 0.478 µM

O=C(O)CN1C(=O)OC(c2ccccc2)C1=O (centres undefined)
inactive: UACC-257 > 100 µM | SF-539 > 100 µM | MOLT-4 > 100 µM | MCF7 > 100 µM | HOP-92 > 100 µM | HOP-62 > 100 µM | PC-3 > 100 µM | SF-295 > 100 µM | NCI-H23 > 100 µM | U-251 > 100 µM | SK-MEL-2 > 100 µM | HL-60 > 100 µM | OVCAR-3 > 100 µM | UACC-62 > 100 µM | OVCAR-5 > 100 µM | RPMI-8226 > 100 µM | OVCAR-8 > 100 µM | MDA-MB-435 > 100 µM | LOX IMVI > 100 µM | KM12 > 100 µM
